Laboratory results reported in article PMC9061853, “Luminescent bis(benzo[d]thiazolyl)quinoxaline: facile synthesis, nucleic acid and protein BSA interaction, live-cell imaging, biopharmaceutical research and cancer theranostic application” (RSC Advances, 2019).

Experiments:
CT-DNA = experiment: UV-visible absorption titration with CT-DNA; assay type: binding
Experimental: DNA is one of the key target for cancer therapy. The drug molecules bind with the DNA by three major modes (i) electrostatic interactions with the DNA double helix (ii) binding to grooves of DNA (iii) intercalation between the base pairs of DNA.[25] The titration in UV was performed by increasing concentration of DNA from 10–60 μM into a fixed drug concentration (20 μM). The intra-ligand absorption bands around 290–350 nm (π–π* transition) were used in observation of the interaction of DNA and compound 7e (Fig. S3a ^†). […] Ethidium bromide, a nonspecific intercalator, gives a strong fluorescence while intercalating DNA base pairs. This enhanced fluorescence can be quenched by another chemical moiety which can competitively replace EtBr and binds to the same site.[27] […] The original fluorescence intensity of EtBr–DNA complex is rapidly quenched by increasing the concentration of compound 7e (Fig. S3c ^†). […]
Then the 96 well plate was placed on the shaker for 10 min and subsequently the absorbance was recorded by the ELISA reader at λ = 490 nm. […] The data were expressed as the growth inhibition percentage calculated according to the equation: % growth inhibition = 100 − [(AD × 100)/AB], where AD is the absorbance measured for sample and AB is the absorbance measured for blank wells (cells with a […]
with DNA. The absorbance of the complex was measured after each succeeding addition of […]

[1] = Buffer stability (LC-MS/MS); assay type: physicochemical; details: pH 7.4 buffer, read-out: % Remaining in 120 min
Experimental: LC-MS/MS methods were developed for compound 7g to quantify the drug concentration and in vitro study (i.e. buffer solubility, buffer stability, metabolic stability, and permeability) in a systemic manner (Table 4). Chromatographic elution conditions were set with the use of 5 mM ammonium formate containing 0.1% formic acid and acetonitrile containing 0.1% formic acid with C8, Kromasil, and 4.6 × […] as a stationary phase (Fig. S5a and b ^†). […] For the data analysis, % accuracy of compound 7g was calculated and it was soluble up to 25 μM (Fig. 3, eqn (7) ^†).
The in vitro solubility and stability of 7g were evaluated in pH 7.4 buffer. The buffer solubility and stability studies were conducted at six different concentrations ranging from 3.13 to 100 μM. For the data analysis, % stability of compound 7g at 120 min was calculated with respect to 0 min time point samples and it was stable up to 2 hours in pH 7.4 buffers. Data analysis was performed through the eqn (8) ^† and was tabulated (Table 4). Compound 7g found to be stable up to 2 hours with % remaining of 71% in pH 7.4.

SMILES	K b, intrinsic DNA binding constant (CT-DNA; UV-visible absorption titration, 7e 20 μM, DNA 10–60 μM) [M⁻¹]	% Hypochromism (CT-DNA; UV-visible titration with CT-DNA) [%]	remaining at 2 h, 3.13 μM ([1]; 3.13 μM) [%]	remaining at 2 h, 6.25 μM ([1]; 6.25 μM) [%]	remaining at 2 h, 12.5 μM ([1]; 12.50 μM) [%]	remaining at 2 h, 25 μM ([1]; 25.00 μM) [%]	remaining at 2 h, 50 μM ([1]; 50.00 μM) [%]	remaining at 2 h, 100 μM ([1]; 100.00 μM) [%]
Clc1cc2nc(COc3ccccc3-c3nc4ccccc4s3)c(COc3ccccc3-c3nc4ccccc4s3)nc2cc1Cl [Compound 7e]	6900	50	–	–	–	–	–	–
COc1ccc2nc(COc3ccccc3-c3nc4ccccc4s3)c(COc3ccccc3-c3nc4ccccc4s3)nc2c1 [Compound 7g, 2,2'-((((6-methoxyquinoxaline-2,3-diyl)bis(methylene))bis(oxy))bis(2,1-phenylene))bis(benzo[d]thiazole)]	–	–	59	68	81	110	110	71
